Experimental data: PubChem BioAssay AID330 (DTP/NCI, 2004)
Values joined by “and” are separate entries in the source; they are usually repeats but may differ in a detail not shown here. Equal entries are not always repeated. Inconclusive results and toxic doses are left out. The calls were made as follows: active = survival T/C of 150% or more; inactive = T/C below 125% in these data.

System: P388 leukemia ip, CD2F1 mice, survival T/C
Assay: NCI In Vivo Anticancer Drug Screen. Data for tumor model P388 Leukemia (intraperitoneal) in CD2F1 (CDF1) mice
Conditions: endpoint: median survival time, higher = longer survival
In short: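 Mice carrying the transplanted tumor received test compound or vehicle. Survival was recorded in each group, and the value is the treated-group measurement divided by that of the vehicle-treated control group.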

[1] = dose: 50.0 mg/kg/injection, schedule: Q01DX005 (ip), vehicle: Klucel (hydroxypropylcellulose) (HPC)
[2] = dose: 100.0 mg/kg/injection, schedule: Q01DX005 (ip), vehicle: Klucel (hydroxypropylcellulose) (HPC)
[3] = dose: 50.0 mg/kg/injection, schedule: Q01DX005 (ip), vehicle: saline with Tween-80
[4] = dose: 25.0 mg/kg/injection, schedule: Q01DX005 (ip), vehicle: Klucel (hydroxypropylcellulose) (HPC)
[5] = dose: 12.5 mg/kg/injection, schedule: Q01DX005 (ip), vehicle: Klucel (hydroxypropylcellulose) (HPC)
[6] = dose: 60.0 mg/kg/injection, schedule: Q01DX005 (ip), vehicle: saline
[7] = dose: 120.0 mg/kg/injection, schedule: Q01DX005 (ip), vehicle: saline
[8] = dose: 240.0 mg/kg/injection, schedule: Q01DX005 (ip), vehicle: saline
[9] = dose: 100.0 mg/kg/injection, schedule: Q01DX009 (ip), vehicle: saline with Tween-80
[10] = dose: 200.0 mg/kg/injection, schedule: Q01DX009 (ip), vehicle: saline with Tween-80
[11] = dose: 400.0 mg/kg/injection, schedule: Q01DX009 (ip), vehicle: saline with Tween-80

Measured: T/C

C=C1C(=O)OC2C1CC(O)/C(C)=C\CCC1(C)OC21 (centres undefined)
inactive: dose: 50.0 mg/kg/injection, schedule: Q01DX009 (ip), vehicle: distilled water + Tween-80 + alcohol 117 % of control | dose: 70.0 mg/kg/injection, schedule: Q01DX009 (ip), vehicle: distilled water + Tween-80 + alcohol 117 % of control | dose: 70.0 mg/kg/injection, schedule: Q01DX009 (ip), vehicle: water 122 % of control | dose: 90.0 mg/kg/injection, schedule: Q01DX009 (ip), vehicle: distilled water + Tween-80 + alcohol 104 % of control

O=C1C2CSCN2C(=O)C2CSCN12 (centres undefined)
inactive: dose: 100.0 mg/kg/injection, schedule: Q01DX001 (ip), vehicle: Klucel (hydroxypropylcellulose) (HPC) 102 % of control | dose: 200.0 mg/kg/injection, schedule: Q01DX001 (ip), vehicle: Klucel (hydroxypropylcellulose) (HPC) 99 % of control | dose: 400.0 mg/kg/injection, schedule: Q01DX001 (ip), vehicle: Klucel (hydroxypropylcellulose) (HPC) 105 % of control

COc1ccc(C2CC(C)(O)Oc3cc4c(cc32)OCO4)cc1 (centres undefined)
inactive: dose: 60.0 mg/kg/injection, schedule: Q01DX005 (ip), vehicle: Klucel (hydroxypropylcellulose) (HPC) 97 % of control | dose: 120.0 mg/kg/injection, schedule: Q01DX005 (ip), vehicle: Klucel (hydroxypropylcellulose) (HPC) 89 % of control

Cc1nc2c(nc1C)C(=O)c1cc(O)ccc1C2=O
inactive: [1] 101 % of control | [2] 104 % of control | dose: 200.0 mg/kg/injection, schedule: Q01DX005 (ip), vehicle: Klucel (hydroxypropylcellulose) (HPC) 100 % of control

CCOC(=O)CCC(=O)Nc1ccccc1C#N
inactive: dose: 50.0 mg/kg/injection, schedule: Q01DX009 (ip), vehicle: saline 102 % of control | dose: 100.0 mg/kg/injection, schedule: Q01DX009 (ip), vehicle: saline 93 % of control | dose: 200.0 mg/kg/injection, schedule: Q01DX009 (ip), vehicle: saline 102 % of control

CC(=O)C[n+]1ccccc1C
inactive: [3] 93 % of control | dose: 100.0 mg/kg/injection, schedule: Q01DX005 (ip), vehicle: saline with Tween-80 107 % of control

CN(C)c1ccc2c(SCC(=O)OCC(=O)[C@@]3(O)CC[C@H]4[C@@H]5CCC6=CC(=O)C=C[C@]6(C)[C@H]5C(=O)C[C@@]43C)c3ccc(N(C)C)cc3nc2c1
inactive: [4] 113 % of control

Cc1nc(C(=O)O)c(C)c(=O)[nH]1
inactive: dose: 0.78 mg/kg/injection, schedule: Q01DX009 (ip), vehicle: water 96 % of control | dose: 0.78 mg/kg/injection, schedule: Q04DX003 (ip), vehicle: water 91 % of control | dose: 1.56 mg/kg/injection, schedule: Q01DX009 (ip), vehicle: water 96 % of control | dose: 1.56 mg/kg/injection, schedule: Q04DX003 (ip), vehicle: water 91 % of control | dose: 3.13 mg/kg/injection, schedule: Q01DX009 (ip), vehicle: water 112 % of control | dose: 3.13 mg/kg/injection, schedule: Q04DX003 (ip), vehicle: water 98 % of control | dose: 6.25 mg/kg/injection, schedule: Q01DX009 (ip), vehicle: water 119 % of control | dose: 6.25 mg/kg/injection, schedule: Q04DX003 (ip), vehicle: water 100 % of control | dose: 12.5 mg/kg/injection, schedule: Q01DX009 (ip), vehicle: water 114 % of control | dose: 12.5 mg/kg/injection, schedule: Q04DX003 (ip), vehicle: water 101 % of control

C=CC1CC[N-]CC1.C=CC1CC[N-]CC1.C=CC1CC[N-]CC1.[Cl][Cr]([Cl])[Cl]
inactive: dose: 12.5 mg/kg/injection, schedule: Q04DX003 (ip), vehicle: saline with Tween-80 100 % of control | dose: 25.0 mg/kg/injection, schedule: Q04DX003 (ip), vehicle: saline with Tween-80 100 % of control | dose: 50.0 mg/kg/injection, schedule: Q04DX003 (ip), vehicle: saline with Tween-80 100 % of control

CC(C)(CNC(=O)C12CC3CC(CC(C3)C1)C2)NC(=O)C12CC3CC(CC(C3)C1)C2
inactive: [5] 98 % of control | [4] 107 % of control | [1] 93 % of control | [2] 88 % of control

CS(=O)CC(=N\O)/C(CS(C)=O)=N\O (centres undefined)
inactive: [6] 104 % of control | [7] 108 % of control | [8] 103 % of control

CC(=O)OC(C)C(O)C(O)C(/C=C/C1CC=CC(=O)O1)OC(C)=O (centres undefined)
inactive: dose: 8.25 mg/kg/injection, schedule: Q01DX005 (ip), vehicle: Klucel (hydroxypropylcellulose) (HPC) 108 % of control | dose: 16.5 mg/kg/injection, schedule: Q01DX005 (ip), vehicle: Klucel (hydroxypropylcellulose) (HPC) 104 % of control | dose: 33.0 mg/kg/injection, schedule: Q01DX005 (ip), vehicle: Klucel (hydroxypropylcellulose) (HPC) 104 % of control | dose: 66.0 mg/kg/injection, schedule: Q01DX005 (ip), vehicle: Klucel (hydroxypropylcellulose) (HPC) 95 % of control

OC(CCl)c1ccc2ccc3c(c2c1)Nc1ccccc1S3 (centres undefined)
inactive: dose: 100.0 mg/kg/injection, schedule: Q04DX003 (ip), vehicle: Klucel (hydroxypropylcellulose) (HPC) 107 % of control | dose: 200.0 mg/kg/injection, schedule: Q04DX003 (ip), vehicle: Klucel (hydroxypropylcellulose) (HPC) 104 % of control | dose: 400.0 mg/kg/injection, schedule: Q04DX003 (ip), vehicle: Klucel (hydroxypropylcellulose) (HPC) 102 % of control

O=C(O)c1cc(-c2ccc(-c3ccc(-c4cc(C(=O)O)c5cc(Cl)ccc5n4)cc3)cc2)nc2ccc(Cl)cc12
inactive: [9] 92 % of control | [10] 94 % of control | [11] 109 % of control

O=C1C(c2ccccc2)=C(c2ccccc2)C2(c3ccccc3)C=NNC12c1ccccc1 (centres undefined)
inactive: dose: 6.25 mg/kg/injection, schedule: Q01DX005 (ip), vehicle: Klucel (hydroxypropylcellulose) (HPC) 95 % of control | [5] 92 % of control

COC(C(=O)CN(C)C)(c1ccccc1)c1ccccc1
inactive: [6] 107 % of control | [7] 99 % of control | [8] 105 % of control

O=c1oc(-c2cc([N+](=O)[O-])cc([N+](=O)[O-])c2Cl)nc2ccccc12
inactive: dose: 12.5 mg/kg/injection, schedule: Q01DX009 (ip), vehicle: Klucel (hydroxypropylcellulose) (HPC) 103 % of control and 110 % of control | dose: 25.0 mg/kg/injection, schedule: Q01DX009 (ip), vehicle: Klucel (hydroxypropylcellulose) (HPC) 105 % of control and 110 % of control | dose: 50.0 mg/kg/injection, schedule: Q01DX009 (ip), vehicle: Klucel (hydroxypropylcellulose) (HPC) 103 % of control and 94 % of control | dose: 100.0 mg/kg/injection, schedule: Q01DX009 (ip), vehicle: Klucel (hydroxypropylcellulose) (HPC) 105 % of control

CC12CCC(=O)N1C(C(=O)O)CS2 (centres undefined)
inactive: dose: 12.5 mg/kg/injection, schedule: Q04DX003 (ip), vehicle: saline 119 % of control | dose: 25.0 mg/kg/injection, schedule: Q04DX003 (ip), vehicle: saline 99 % of control and 106 % of control | dose: 50.0 mg/kg/injection, schedule: Q04DX003 (ip), vehicle: saline 102 % of control and 109 % of control and 97 % of control | dose: 100.0 mg/kg/injection, schedule: Q04DX003 (ip), vehicle: saline 98 % of control and 123 % of control and 97 % of control | dose: 200.0 mg/kg/injection, schedule: Q04DX003 (ip), vehicle: saline 107 % of control | dose: 400.0 mg/kg/injection, schedule: Q04DX003 (ip), vehicle: saline 91 % of control

CC(C)C(Sc1nc(N)nc2nc[nH]c12)C(=O)O (centres undefined)
inactive: [9] 95 % of control | dose: 100.0 mg/kg/injection, schedule: Q04DX003 (ip), vehicle: saline with Tween-80 95 % of control | [10] 100 % of control | dose: 200.0 mg/kg/injection, schedule: Q04DX003 (ip), vehicle: saline with Tween-80 100 % of control | [11] 104 % of control | dose: 400.0 mg/kg/injection, schedule: Q04DX003 (ip), vehicle: saline with Tween-80 95 % of control

CCOC(=O)CCC[P+](c1ccccc1)(c1ccccc1)c1ccccc1
inactive: dose: 5.33 mg/kg/injection, schedule: Q01DX009 (ip), vehicle: saline with Tween-80 109 % of control | dose: 8.0 mg/kg/injection, schedule: Q01DX009 (ip), vehicle: saline with Tween-80 118 % of control | dose: 12.0 mg/kg/injection, schedule: Q01DX009 (ip), vehicle: saline with Tween-80 109 % of control

COC(=O)C1(C(=O)OC)C2C=CCC21 (centres undefined)
inactive: dose: 50.0 mg/kg/injection, schedule: Q01DX009 (ip), vehicle: saline with Tween-80 96 % of control | [9] 102 % of control | [10] 104 % of control

O=C1[N-]C(=S)c2cccn21.O=C1[N-]C(=S)c2cccn21.[Pt+2]
inactive: dose: 6.25 mg/kg/injection, schedule: Q01DX005 (ip), vehicle: saline with Tween-80 104 % of control | dose: 12.5 mg/kg/injection, schedule: Q01DX005 (ip), vehicle: saline with Tween-80 107 % of control | dose: 25.0 mg/kg/injection, schedule: Q01DX005 (ip), vehicle: saline with Tween-80 105 % of control | [3] 105 % of control
